# Values of other authors, collected in patent publication US20210145768A1, “MODULATING IMMUNE RESPONSE VIA TARGETING OF OLFACTORY RECEPTOR ACTIVITY” (La Jolla Institute for Allergy and Immunology, priority 2018, published 2021).
# Test system: olfactory receptors
# Conditions: odorant (agonist) : olfactory receptor pair; cited from earlier work
row,SMILES,Olfactory receptor agonized by the odorant (agonist)
1,O=C(O)CCCCCCCC(=O)O [azelaic acid],Olfr544 (human unknown)
2,CCCCCOC(=O)CCC [amyl butyrate],OR2AG1
3,CC1=CCC(CCC(C)CO)C1(C)C (stereo not drawn) [Brahmanol],OR2AT4
